What was measured:
THP-1 [1] = assay: Anti-foam cell formation activity in human THP1 cells assessed as inhibition of esterified cholesterol accumulation after 24 hrs in presence of Japanese white rabbit high-cholesterol serum; assay type: functional, cell-based; details: THP-1, 24 h
[2] = target: T1, Acyl-CoA:cholesterol acyltransferase (Oryctolagus cuniculus, UniProt Q95214); assay: Inhibition of ACAT in Japanese White rabbit liver microsomes; parameters: species or system Microsome
T1 sequence (Q95214 whole entry): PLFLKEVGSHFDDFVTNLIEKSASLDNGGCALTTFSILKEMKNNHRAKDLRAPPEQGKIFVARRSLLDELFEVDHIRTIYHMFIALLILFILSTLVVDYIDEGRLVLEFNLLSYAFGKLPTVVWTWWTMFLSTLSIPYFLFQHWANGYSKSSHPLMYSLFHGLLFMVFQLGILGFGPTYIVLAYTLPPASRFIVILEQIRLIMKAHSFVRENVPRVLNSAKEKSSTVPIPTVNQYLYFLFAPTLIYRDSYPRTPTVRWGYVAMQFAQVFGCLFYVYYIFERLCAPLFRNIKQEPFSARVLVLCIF

[3] = Cmax in Sprague-Dawley rat at 10 mg/kg, po; assay type: ADME, organism-based; parameters: dose 10 mg/kg, route oral; details: in vivo
[4] = Tmax in Sprague-Dawley rat at 10 mg/kg, po; assay type: ADME, organism-based; parameters: dose 10 mg/kg, route oral; details: in vivo
[5] = AUC (0 to 24 hrs) in Sprague-Dawley rat at 10 mg/kg, po; assay type: ADME, organism-based; parameters: time < 24 hr, dose 10 mg/kg, route oral; details: plasma
[6] = Half life in Sprague-Dawley rat at 10 mg/kg, po; assay type: ADME, organism-based; parameters: dose 10 mg/kg, route oral; details: in vivo
THP-1 [7] = assay: Anti-foam cell formation activity in human THP1 cells assessed as inhibition of esterified cholesterol accumulation after 24 hrs in presence of albumin; assay type: functional
Mus musculus = assay: Inhibition of hepatic cholesterol secretion in ICR mouse at 10 mg/kg, po after 3 hrs by enzymatic method; assay type: functional
[8] = Protein binding in rat plasma assessed as total and protein free fraction concentration at 10 ug/ML after 150 mins by ultracentrifugation method; assay type: ADME, cell-free; details: read-out: PPB (converted)

Row | IC50 (THP-1 [1]) [nM] | IC50 [2] [nM] | Structure (SMILES) | also measured
1 | 290 |  | CCCCCCCCN1CCc2c(C)cc(C)c(NC(=O)C(C)(C)C)c21 | 
2 | 1100 | 220 | CCCCN1CCc2c(C)cc(C)c(NC(=O)C(C)(C)C)c21 | 
3 | 980 | 910 | CCCCCCCCCCN1CCc2c(C)c(CC(=O)O)c(C)c(NC(=O)C(C)(C)C)c21 | 
4 | 1600 | 270 | COCCN1CCc2c(C)c(NS(C)(=O)=O)c(C)c(NC(=O)C(C)(C)C)c21 | 
5 | 290 | 130 | CCCN1CCCc2c(C)c(NS(C)(=O)=O)c(C)c(NC(=O)C(C)(C)C)c21 | 
6 |  |  | CCN1CCc2c(C)c(NS(C)(=O)=O)c(C)c(NC(=O)C(C)(C)C)c21 | Cmax [3]: 2900 ng/mL; Tmax [4]: 0.5 h; AUC(0-t) at 24 h [5]: 10800 ng·h/mL; half-life [6]: 2.59 h
7 | 7500 | 8800 | Cc1c2c(c(NC(=O)C(C)(C)C)c(C)c1NS(C)(=O)=O)N(C)CC2 | 
8 | 850 | 960 | CCCCCCCCCCCN1CCc2c(C)c(CC(=O)O)c(C)c(NC(=O)C(C)(C)C)c21 | 
9 | 820 | 310 | CCOCCN1CCc2c(C)c(NS(C)(=O)=O)c(C)c(NC(=O)C(C)(C)C)c21 | 
10 | 45 | 53 | CCCCN1CCc2c(C)c(NS(C)(=O)=O)c(C)c(NC(=O)C(C)(C)CC)c21 | 
11 | 2000 | 2300 | CCCCCCCCN1CCc2c(C)c(CC(=O)O)c(C)c(NC(=O)C(C)(C)C)c21 | 
12 |  |  | CCCCCCCCN1CCc2c(C)c(CC(=O)O)c(C)c(NC(=O)C(C)(C)C)c21 [PACTIMIBE] | fold change (FC) (THP-1 [7]): 10; Cmax [3]: 800 ng/mL; Tmax [4]: 0.67 h; inhibition in vivo at 10 mg/kg (Mus musculus): 28%; AUC(0-t) at 24 h [5]: 2800 ng·h/mL; fraction unbound at […], 10 ug/mL [8]: 0.021; half-life [6]: 7.37 h

Source: ChEMBL document CHEMBL1153475, “Novel indoline-based acyl-CoA: cholesterol acyltransferase inhibitor: Effects of introducing a methanesulfonamide group on physicochemical properties and biological activities” (Bioorg Med Chem, 2009)
